Molecular target: T1, PTK2 (Homo sapiens, UniProt Q05397)
T1 construct: purchased Invitrogen PV3832
Assay: PTK2 enzyme test Assay 2 (DELFIA, poly-Glu-Tyr substrate, PT66 antibody)
Assay type: biochemical
Details: Assay 2 (values marked *); 1 h pre-incubation, 50 μM ATP mix, final DMSO 0.5%
Source text: This test uses active PTK2 enzyme (Invitrogen Code PV3832) and poly-Glu-Tyr (4:1, Sigma P-0275) as the kinase substrate. The kinase activity is detected by means of the phosphorylation of the substrate in a DELFIA™ assay. The phosphorylated substrate is detected with the europium-labelled phosphotyrosine antibody PT66 (Perkin Elmer, No.: AD0040).
In order to determine concentration-activity curves with PTK2-inhibitors the compounds are serially diluted first of all in 100% DMSO and then in kinase dilution buffer (20 mM TRIS/HCl pH 7.5, 0.1 mM EDTA, 0.1 mM EGTA, 0.286 mM sodium orthovanadate, 10% glycerol with the addition of freshly prepared BSA (fraction V, 1 mg/mL) and DTT (1 mM)) and 10 μL of each dilution are dispensed per well in a 96-well microtitre plate (clear U-shaped base plate, Greiner No. 650101) (the inhibitors are tested in duplicates) and mixed with 10 μL/well of PTK2 kinase (0.01 μg/well). PTK2 kinase is diluted accordingly beforehand with kinase dilution buffer. The diluted PTK2 inhibitor and the PTK2 kinase are pre-incubated for 1 h at RT and shaken at 500 revolutions per min. Then 10 μL/well poly-Glu-Tyr substrate (25 μg/well poly-Glu-Tyr, 0.05 μg/well biotinylated poly-Glu-Tyr dissolved in 250 mM TRIS/HCl pH 7.5, 9 mM DTT) are added. The reaction is started by the addition of 20 μL of ATP Mix (30 mM TRIS/HCl pH 7.5, 0.02% Brij, 0.2 mM sodium orthovanadate, 10 mM magnesium acetate, 0.1 mM EGTA, 1× phosphatase inhibitor cocktail 1 (Sigma, No.: P2850), 50 μM ATP (Sigma, No.: A3377; 15 mM stock solution))—the final concentration of DMSO is 0.5%. After 1 h kinase reaction (the plates are shaken at 500 rpm), the reaction is stopped by the addition of 12 μL/well of 100 mM EDTA, pH 8, and shaken for a further 5 min at RT (500 U/min). 55 μL of the reaction mixture are transferred into a streptavidin plate (Strepta Well High Bind (transparent, 96-well) made by Roche, No.: 11989685001) and incubated for 1 h at RT (shaking at 500 rpm). Then the microtitre plate is washed five times with 200 μL/well D-PBS (Invitrogen, No. 14190). 100 μL of a solution containing DELFIA Eu-N1 Anti-Phosphotyrosine PT66 antibody (Perkin Elmer, No.: AD0040, diluted 1:9000 in DELFIA test buffer (Perkin Elmer, No.: 1244-111)) is then added and it is incubated for 1 h at RT (shaking at 500 rpm). Then the plate is washed five times with 200 μL/well DELFIA washing buffer (Perkin Elmer, No.: 1244-114), 200 μL/well strengthening solution (Perkin Elmer, No.: 1244-105) is added and the whole is incubated for 10 min at RT (shaking at 300 rpm).
The time-delayed europium fluorescence is then measured in a microtitre plate reader (VICTOR^3, Perkin Elmer). The positive control consists of wells that contain solvent (0.5% DMSO in test buffer) and display uninhibited kinase activity. Wells that contain test buffer instead of enzyme act as a control for the background kinase activity.
The IC50 values are determined from concentration-activity analyses by iterative calculation using a sigmoid curve analysis algorithm (FIFTY, based on GraphPAD Prism Version 3.03) with a variable Hill coefficient.

T1 sequence (Q05397 whole entry): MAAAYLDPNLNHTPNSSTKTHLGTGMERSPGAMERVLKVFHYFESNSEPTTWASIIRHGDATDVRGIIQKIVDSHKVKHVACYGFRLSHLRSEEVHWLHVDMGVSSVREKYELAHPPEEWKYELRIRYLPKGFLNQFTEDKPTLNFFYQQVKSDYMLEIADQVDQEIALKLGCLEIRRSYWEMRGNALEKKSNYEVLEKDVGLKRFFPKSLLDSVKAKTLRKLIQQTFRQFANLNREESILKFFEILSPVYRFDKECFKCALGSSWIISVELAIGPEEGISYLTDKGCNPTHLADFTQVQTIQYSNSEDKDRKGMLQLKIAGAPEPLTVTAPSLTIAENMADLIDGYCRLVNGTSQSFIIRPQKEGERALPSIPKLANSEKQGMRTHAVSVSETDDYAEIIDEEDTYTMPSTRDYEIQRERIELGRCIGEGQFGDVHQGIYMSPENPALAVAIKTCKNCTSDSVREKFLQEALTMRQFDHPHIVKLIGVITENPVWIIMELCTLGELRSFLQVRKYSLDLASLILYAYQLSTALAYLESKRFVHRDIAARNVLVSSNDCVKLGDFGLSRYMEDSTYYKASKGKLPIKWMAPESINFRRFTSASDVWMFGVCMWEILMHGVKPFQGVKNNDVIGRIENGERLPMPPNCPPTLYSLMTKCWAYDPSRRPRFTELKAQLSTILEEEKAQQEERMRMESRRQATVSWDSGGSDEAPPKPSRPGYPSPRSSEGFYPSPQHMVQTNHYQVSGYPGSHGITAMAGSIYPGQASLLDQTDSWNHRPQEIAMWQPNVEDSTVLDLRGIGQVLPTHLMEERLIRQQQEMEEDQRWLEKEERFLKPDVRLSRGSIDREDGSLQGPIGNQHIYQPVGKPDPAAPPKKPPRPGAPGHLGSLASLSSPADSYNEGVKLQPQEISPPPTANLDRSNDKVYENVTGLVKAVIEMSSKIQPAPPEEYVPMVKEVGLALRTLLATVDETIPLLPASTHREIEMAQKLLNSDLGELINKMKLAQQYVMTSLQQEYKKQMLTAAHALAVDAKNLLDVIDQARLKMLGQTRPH

COc1cc(N2CCNCC2)c(C)cc1Nc1ncc(C(F)(F)F)c(N[C@@H]2Cc3ccccc3[C@H]2N(C)S(C)(=O)=O)n1 [Example I-74, N-{(1R,2R)-2-[2-(2-methoxy-5-methyl-4-piperazin-1-yl-phenylamino)-5-trifluoromethyl-pyrimidin-4-ylamino]-indan-1-yl}-N-methyl-methanesulphonamide]
IC50: 0.66 nM

COc1cc(F)c(C(=O)NC2CCN(C)CC2)cc1Nc1ncc(Cl)c(N[C@@H]2Cc3ccccc3[C@H]2N(C)S(C)(=O)=O)n1 [Example I-75, 5-{5-chloro-4-[(1R,2R)-1-(methanesulphonyl-methyl-amino)-indan-2-ylamino]-pyrimidin-2-ylamino}-2-fluoro-4-methoxy-N-(1-methyl-piperidin-4-yl)-benzamide]
IC50: 0.3 nM

COc1cc(N2CCNCC2)c(Cl)cc1Nc1ncc(C(F)(F)F)c(N[C@@H]2Cc3ccccc3[C@H]2N(C)S(C)(=O)=O)n1 [Example I-76, N-{(1R,2R)-2-[2-(5-chloro-2-methoxy-4-piperazin-1-yl-phenylamino)-5-trifluoromethyl-pyrimidin-4-ylamino]-indan-1-yl}-N-methyl-methanesulphonamide]
IC50: 0.76 nM

COc1cc(N2CCN(C)CC2)c(C)cc1Nc1ncc(C(F)(F)F)c(N[C@@H]2Cc3ccccc3[C@H]2N(C)S(C)(=O)=O)n1 [Example I-77]
IC50: 0.56 nM

COc1cc(N2CCN(C(C)(C)C)CC2)c(C)cc1Nc1ncc(C(F)(F)F)c(N[C@@H]2Cc3ccccc3[C@H]2N(C)S(C)(=O)=O)n1 [Example I-78, N-((1R,2R)-2-{2-[4-(4-tert-butyl-piperazin-1-yl)-2-methoxy-5-methyl-phenylamino]-5-trifluoromethyl-pyrimidin-4-ylamino}-indan-1-yl)-N-methyl-methanesulphonamide]
IC50: 0.83 nM

COc1cc(NC(=O)N(C)C)ccc1Nc1ncc(C(F)(F)F)c(N[C@@H]2Cc3ccccc3[C@H]2N(C)S(C)(=O)=O)n1 [Example I-79]
IC50: 0.23 nM

COc1cc(F)c(C(=O)NC2CCN(C)CC2)cc1Nc1ncc(C(F)(F)F)c(N[C@@H]2Cc3ccccc3[C@H]2N(C)S(C)(=O)=O)n1 [Example I-80, 2-fluoro-5-{4-[(1R,2R)-1-(methanesulphonyl-methyl-amino)-indan-2-ylamino]-5-trifluoromethyl-pyrimidin-2-ylamino}-4-methoxy-N-(1-methyl-piperidin-4-yl)-benzamide]
IC50: 0.36 nM

COc1ccc(C(=O)N(C)C2CCN(C)CC2)cc1Nc1ncc(C(F)(F)F)c(N[C@@H]2Cc3ccccc3[C@H]2N(C)S(C)(=O)=O)n1 [Example I-81]
IC50: 0.43 nM

COc1cc(C)c(C(=O)NC2CCOCC2)cc1Nc1ncc(C(F)(F)F)c(N[C@@H]2Cc3ccccc3[C@H]2N(C)S(C)(=O)=O)n1 [Example I-82]
IC50: 0.36 nM

COc1cc(C(=O)NN2CCN(C)CC2)ccc1Nc1ncc(C(F)(F)F)c(N[C@@H]2Cc3ccccc3[C@H]2N(C)S(C)(=O)=O)n1 [Example I-83]
IC50: 0.47 nM

COc1ccc(C(=O)N(C)CCN2CCCC2)cc1Nc1ncc(C(F)(F)F)c(N[C@@H]2Cc3ccccc3[C@H]2N(C)S(C)(=O)=O)n1 [Example I-85]
IC50: 0.44 nM

COc1cc(N2CCN(C)CC2=O)ccc1Nc1ncc(C(F)(F)F)c(N[C@@H]2Cc3ccccc3[C@H]2N(C)S(C)(=O)=O)n1 [Example I-86]
IC50: 0.31 nM

COc1cc(N2CCNCC2=O)ccc1Nc1ncc(C(F)(F)F)c(N[C@@H]2Cc3ccccc3[C@H]2N(C)S(C)(=O)=O)n1 [Example I-87]
IC50: 0.48 nM

CN1CCC(NC(=O)c2cccc(Nc3ncc(C(F)(F)F)c(N[C@@H]4Cc5ccccc5[C@H]4N(C)S(C)(=O)=O)n3)c2)CC1 [Example I-88]
IC50: 0.26 nM

CCc1cc(Nc2ncc(C(F)(F)F)c(N[C@@H]3Cc4ccccc4[C@H]3N(C)S(C)(=O)=O)n2)c(OC)cc1N1CCN(C(C)(C)C)CC1 [Example I-89]
IC50: 0.68 nM

COc1cc(N2CCN(C(C)(C)C)CC2)ccc1Nc1ncc(C(F)(F)F)c(N[C@@H]2Cc3ccccc3[C@H]2NS(C)(=O)=O)n1 [Example I-91]
IC50: 0.75 nM

COc1ccc(C(=O)NC2CCN(C)CC2)cc1Nc1ncc(Cl)c(N[C@@H]2Cc3ccccc3[C@H]2N(C)S(C)(=O)=O)n1 [Example I-93]
IC50: 0.6 nM

COc1cc(C(=O)NCCN(C)C)ccc1Nc1ncc(C(F)(F)F)c(N[C@@H]2CCc3ccccc3[C@H]2N(C)S(C)(=O)=O)n1 [Example I-94]
IC50: 16 nM
